# Results: patent publication US12268702B2, “Antitumor pharmaceutical composition comprising azvudine and chemotherapeutic agent” (HENAN GENUINE BIOTECH CO., LTD., priority 2023, dated 2025)
# Values joined by “and” are separate entries in the source; they are usually repeats but may differ in a detail not shown here. Equal entries are not always repeated.
# What was measured:
# Assay type in all cases: in vivo
# [1] = test system: MOLT4 xenograft tumor model; assay: Human acute lymphoblastic leukemia MOLT4 cell subcutaneous xenograft tumor model; settings: combination 1 + 50 mg/kg; for Tumor volume (mm^3) on the 28th day: SCID Beige mice, QD x 4 weeks, azvudine 2 mg/kg in Table 10, cyclophosphamide 50 mg/kg i.p.
# Protocol: (§1) Human acute lymphoblastic leukemia cells MOLT4 (Cat. No.: ECACC-85011413) were in vitro suspended and cultured in RPMI 1640 medium containing 10% fetal bovine serum, 100 U/mL penicillin and 100 μg/mL streptomycin, in a 37° C. and 5% CO2 incubator. When the cell saturation achieved 80%-90% and the cell number reached the requirement, the cells were collected, counted and inoculated.
# 0.2 mL (10×10^6) of MOLT4 cells (added with Matrigel at a volume ratio of 1:1) were subcutaneously inoculated on the right back of each mouse. The grouping administration was started when the average tumor volume reached about 148 mm^3.
# The changes of tumor volume and tumor weight in each group after administration of test drugs for treating SCID Beige mice with MOLT4 cell subcutaneous xenograft tumor are shown in Table 10 and Table 11.
# [2] = test system: Daudi xenograft tumor model; assay: Human Burkitt's lymphoma cell Daudi subcutaneous xenograft tumor model; settings: combination 1 + 50 mg/kg; for Tumor volume (mm^3) on the 27th day: CB 17 SCID mice, QD x 4 weeks, azvudine 1 mg/kg p.o., cyclophosphamide 50 mg/kg i.p.
# Protocol: as §1, with “Burkitt's lymphoma” for “acute lymphoblastic leukemia”, “Daudi” for “MOLT4”, “DSMZ-ACC129)” for “ECACC-85011413)”, “serum, 2 mM glutamine,” for “serum,”
# 0.2 mL (10×10^6) of Daudi cells (added with Matrigel at a volume ratio of 1:1) were subcutaneously inoculated on the right back of each mouse. The grouping administration was started when the average tumor volume reached about 100 mm^3.
# The changes of tumor volume and tumor weight in each group after administration of test drugs for treating CB 17 SCID mice with Daudi cell subcutaneous xenograft tumor are shown in Table 8 and Table 9 respectively.
# [3] = test system: OVCAR-8 human ovarian cancer model; assay: OVCAR-8 human ovarian cancer subcutaneous xenograft tumor model; settings: azvudine 1 mg/kg, paclitaxel 15 mg/kg, avastin 10 mg/kg, combinations 1 + 15 and 1 + 10 mg/kg; for T/C (%) / TGI (%) / Tumor volume (x ± S): 34th day after grouping; for average tumor volume: 34th day of administration
# Protocol: (§2) OVCAR-8 cells were cultured in RPMI1640 medium containing 10% fetal bovine serum. OVCAR-8 cells in the exponential growth phase were collected, resuspended in PBS to an appropriate concentration and mixed with Matrigel at a ratio of 1:1. The resulting mixture was used for subcutaneous inoculation of tumor in mice.
# 1×10^7 OVCAR-8 cells were inoculated subcutaneously on the right side of female mice. When the average tumor volume achieved 174.25 mm^3, the mice were randomly divided into groups according to tumor size.
# The experimental protocols for animal experiments in this experiment were reviewed and approved by the CrownBio IACUC committee. During the experiment, the animal experiments were performed in accordance with the requirements of AAALAC. After tumor inoculation was completed, the impact of tumor growth and treatment on normal behavior of animals was routinely monitored, specifically the activity of experimental animals, food intake and water intake, body weight gain or loss (body weight was measured twice a week), eye, hair and other abnormalities. The clinical symptoms observed during the experiment were recorded in the original data. The tumor volume was calculated according to the following formula: tumor volume (mm^3)=½×(a×b^2) (where a represents long diameter and b represents short diameter).
# Relative tumor proliferation rate, T/C %, refers to the percentage value of the relative tumor volume or tumor weight of the treatment group and the control group at a certain time point, which was calculated as follows: • T/C %=TRTV/CRTV×100% (TRTV: the average RTV of the treatment group; CRTV: the average RTV of the vehicle control group; RTV=Vt/V0, where V0 is the tumor volume of the animal when grouped, and Vt is the tumor volume of the animal after treatment); • or T/C %=TTW/CTW×100% (TTW: the average tumor weight of the treatment group at the end of the experiment; CTW: the average tumor weight of the vehicle control group at the end of the experiment).
# Relative tumor inhibition rate, TGI (%), was calculated according to the formula as follows: TGI %=(1−T/C)×100%. (T and C are the relative tumor volumes (RTV) or tumor weights (TW) of the treatment group and the control group at a specific time point).
# To compare tumor volumes of different treatment groups on a given day, first the assumption of homogeneity of variance among all groups was tested using the Bartlett test. When the p-value of Bartlett's test was not less than 0.05, whether all group means were equal was tested using one-way ANOVA. If the p-value of the one-way ANOVA was less than 0.05, pairwise comparisons among all groups were conducted using Tukey's HSD test, or pairwise comparisons between each treatment group and control group were conducted using Dunnett's t-test. When the p-value of Bartlett's test was less than 0.05, whether the medians of all groups were equal was tested using Kruskal Wallis test. If the p-value of the Kruskal Wallis test was less than 0.05, pairwise comparisons among all groups or between each treatment group and control group were conducted using Conover test, and the corresponding p-value correction was performed according to the number of groups in the multiple test.
# [4] = test system: Colo 205 human colon cancer model; assay: Colo 205 human colon cancer subcutaneous xenograft tumor model
# Protocol: Experimental animals were 68 (48 plus 20 spare mice) BALB/c female nude mice, 7-8 weeks old (the age of mice at the time of tumor cell inoculation) and weighing 15.7-20.7 g, which were purchased from Beijing VitalRiver Experimental Animal Technology Co., Ltd. Breeding environment was SPF grade. The experimental animals were all kept in an independent ventilated box with constant temperature and humidity. The temperature of the breeding room was 20-26° C., the humidity was 40-70%. The breeding room was ventilated 10-20 times per hour. The alternating time of day and night was 12 h/12 h. The mice were continuously supplied with cobalt 60 radiation sterilized mouse complete pellet feed, and had free access to the feed. The mice drank tap water (available after sterilization with high-pressure steam), which was continuously supplied using a water-drinking bottle, and had free access to water. The mouse box was a polysulfone mouse box, which was used after sterilization under high pressure, with a size of 325 mm×210 mm×180 mm.
# as §2, with “Colo 205” for “OVCAR-8”, “mice. 5×10^6 Colo 205 cells were subcutaneously inoculated on the right side of female mice. The day of inoculation was defined as Day 0. When the average tumor volume reached 110.26 mm^3, the mice were randomly divided into groups according to tumor size.” for “mice.”
# Relative tumor proliferation rate, T/C %, refers to the percentage value of the relative tumor volume or tumor weight of the treatment group and the control group at a certain time point, which was calculated as follows:
# T/C %=TRTV/CRTV×100% (TRTV: the average RTV of the treatment group; CRTV: the average RTV of the vehicle control group; RTV=Vt/V0, where V0 is the tumor volume of the animal when grouped, and Vt is the tumor volume of the animal after treatment); • or T/C %=TTW/CTW×100% (TTW: the average tumor weight of the treatment group at the end of the experiment; CTW: the average tumor weight of the vehicle control group at the end of the experiment). • Relative tumor inhibition rate, TGI (%), was calculated according to the formula as follows: TGI %=(1−T/C)×100%. (T and C are the relative tumor volumes (RTV) or tumor weights (TW) of the treatment group and the control group at a specific time point).
# [5] = test system: LoVo xenograft tumor model; assay: LoVo human colon cancer subcutaneous xenograft tumor model; settings: 21st day of administration, azvudine 1 mpk, capecitabine 400 mpk, combination 1 + 400 mpk; for Tumor volume (mm^3): BALB/c nude mice, p.o. QD x 3 weeks
# Protocol: Human colon cancer cells LoVo (Cat. No.: ECACC-87060101) were cultured in vitro as a monolayer in F12K medium containing 10% fetal bovine serum, 100 U/mL penicillin and 100 μg/mL streptomycin, in a 37° C. and 5% CO2 incubator. The cells were routinely digested with trypsin-EDTA and passaged twice a week. When the cell saturation reached 80%-90% and the cell number achieved the requirement, the cells were collected, counted and inoculated.
# 0.1 mL)(10×10^6) of LoVo cells were subcutaneously inoculated on the right back of each mouse. The grouping administration was started when the average tumor volume reached about 147 mm^3.
# The tumor volume changes and the tumor weight changes in each group (on the 21st day of administration) after administration of test drugs for treating BALB/c nude mice with Lovo cell subcutaneous xenograft tumor are shown in Table 5 and Table 6 respectively.
# [6] = based on tumor volume, 28th day, azvudine 2 mg/kg in Table 10, cyclophosphamide 50 mg/kg
# [7] = based on tumor volume, 27th day, azvudine 1 mg/kg, cyclophosphamide 50 mg/kg
# [8] = based on tumor volume, 25th day after inoculation, p.o. QD x 3 weeks, azvudine 1 mpk, capecitabine 400 mpk, combination 1 + 400 mpk
# [9] = based on tumor weight, azvudine 1 mpk, capecitabine 400 mpk, combination 1 + 400 mpk
molecule,measurement,setting,value
"O=P1(N(CCCl)CCCl)NCCCO1 (centres unmarked) [Cyclophosphamide, cyclophosphamide]",Tumor volume (mm^3) on the 28th day,[1]; 28th day of administration,716 ± 76 mm^3
same,Tumor volume (mm^3) on the 28th day,"[1]; 28th day of administration, listed as cyclophosphamide CTX",716 mm^3
same,Tumor weight (g) (On the 28th day),"[1]; 28th day of administration, azvudine 1 mg/kg, cyclophosphamide 50 mg/kg",0.822 ± 0.065 g
same,T/C (%),[1]; [6],24.53%
same,TGI (%),[1]; [6],79.34%
same,T/Cweight (%),"[1]; based on tumor weight, 28th day, azvudine 1 mg/kg, cyclophosphamide 50 mg/kg",27.65%
same,Tumor volume (mm^3) on the 27th day,[2]; 27th day of administration,263 ± 54 mm^3
same,Tumor volume (mm^3) on the 27th day,"[2]; 27th day of administration, listed as cyclophosphamide",263 mm^3
same,Tumor weight (g) (On the 27th day),"[2]; 27th day of administration, azvudine 1 mg/kg, cyclophosphamide 50 mg/kg",0.343 ± 0.066 g
same,T/C (%),[2]; [7],8.83%
same,TGI (%),[2]; [7],94.17%
same,T/Cweight (%),"[2]; based on tumor weight, 27th day, azvudine 1 mg/kg, cyclophosphamide 50 mg/kg",11.49%
"CC(=O)O[C@H]1C(=O)[C@@]2(C)[C@H]([C@H](OC(=O)c3ccccc3)[C@]3(O)C[C@H](OC(=O)[C@H](O)[C@@H](NC(=O)c4ccccc4)c4ccccc4)C(C)=C1C3(C)C)[C@]1(OC(C)=O)CO[C@@H]1C[C@@H]2O [Paclitaxel, paclitaxel]",T/C (%),[3],73.51%
same,TGI (%),[3],26.49%
same,Tumor volume (x ± S),[3],403.40 ± 69.43(6)
same,TGI (%),[3]; listed as paclitaxel,26.49% and 26.5%
same,average tumor volume,[3],403.40 mm^3
"CCCCCOC(=O)Nc1nc(=O)n([C@@H]2O[C@H](C)[C@@H](O)[C@H]2O)cc1F [Capecitabine, capecitabine]",Tumor volume,"[4]; 25th day after inoculation (20th day after grouping), BALB/c nude mice, p.o. QD x 3 weeks, azvudine 1 mpk, capecitabine 400 mpk, combination 1 + 400 mpk",264.96 ± 38.65(6)
same,average tumor volume,"[4]; 25th day after tumor inoculation (20th day after grouping), azvudine 1 mg/kg, capecitabine 400 mg/kg, combination 1 + 400 mg/kg",264.96 mm^3
same,T/C (%),[4]; [8],18.07%
same,TGI (%),[4]; [8],81.93%
same,T/C (%),[4]; [9],85.92%
same,TGI,[4]; [9],14.08
same,Tumor weight (mg),"[4]; end of experiment, p.o. QD x 3 weeks, azvudine 1 mpk, capecitabine 400 mpk, combination 1 + 400 mpk",193.35 ± 28.54(6) mg
same,Tumor volume (mm^3),[5],919 ± 190 mm^3
same,Tumor volume (mm^3),[5]; listed as capecitabine,919 mm^3
same,Tumor weight,[5],0.893 ± 0.173 g
same,T/C (%),[5]; based on tumor volume,60.94%
same,TGI (%),[5]; based on tumor volume,42.11%
same,TGI (%),"[5]; based on tumor volume, listed as capecitabine",42.11% and 42.1%
same,T/C (%),[5]; based on tumor weight,63.27%
Avastin: positive drug avastin,T/C (%),[3],82.30%
same,TGI (%),[3],17.70%
same,Tumor volume (x ± S),[3],456.04 ± 110.65(6)
same,average tumor volume,[3],456.04 mm^3
